# Results reported in patent US11014908B2, “Chemical compounds” (Pfizer Inc., priority 2018, dated 2021).
# Experiments:
# HbS = target: T1, HbS (Homo sapiens, UniProt P68871+P69905, E7V); assay: 'R'-'T' assay (conversion of oxy HbS to deoxy HbS under deoxygenating conditions); assay type: biochemical; conditions: 50% inhibition of HbS 'R'-'T' conversion; 3 uM HbS, <1% O2
# T1 construct: HbS was obtained from the blood of homozygous S/S patients; from tissue; host or cells: red blood cells of homozygous S/S patients
# Procedure: Conversion from oxy (R, relaxed state) to deoxy (T, tense state) HbS in the presence of compound was performed to determine the ability of compounds to stabilize the oxy (R) state under deoxygenating conditions. The assay run was similar to the ‘Oxygen dissociation assay’ described in Oksenberg et al, Br J Haematology, 2016, 175, 141-153.
# Assay ready compound plates were prepared by first preparing a master serial dilution plate from a 30 mM initial compound stock in 100% DMSO. From this master serial dilution plate, 167 nL of the desired compound concentration was delivered to the assay ready plates using acoustical dispensing. Plates were frozen at −20° C. until needed. Purified HbS-O2 (i.e. oxy HbS) was diluted to 3 uM in 100 mM potassium phosphate buffer, pH=7.4. 50 uL of 3 uM stock solution was added to each well of the assay ready plate and mechanically mixed eight times. Following mixing the plates were covered and incubated at room temperature for one hour with moderate shaking. Following incubation, the plates were placed in a deoxygenated environment (<1% O2) for two hours, and the conversion to deoxy HbS monitored as a function of time. Oxygenated and deoxygenated forms of hemoglobin were detected using the absorbance of the Soret peaks at 415 and 430 nm respectively, and absorbance measurements (optical density, OD) were taken at 0, 90 and 120 minutes. Background absorbance for correction was collected at 700 nm.
# Data were analyzed by first subtracting baseline absorbance at 700 nm from 415 nm and 430 nm data at each timepoint, and then taking the ratio of 415/430 nm data (Ratio=[(OD415−OD700)/(OD430−OD700)]. The effect at each timepoint was calculated using the ratios from the previous calculation at time 0 and each time point of interest (Effect^time x=Ratio^time x/Ratio^time 0). Percent effect was calculated by comparing the effects of compound versus HbS only with the effects observed by the positive control compound tucaresol (percent effect=[(effect^time x compound−effect^time x HbS)/(effect^time x tucaresol−effect^time x HbS)]×100). Data were reported as the percent effect for a single point. Calculations to determine the concentration of compound for 50% inhibition (IC50 (uM)) of the HbS ‘R’-‘T’ conversion were based on the percent effect at varying compound concentration.
# [1] = target: T2, purified sickle cell hemoglobin (HbS) (Homo sapiens, UniProt P68871+P69905, E7V); assay: Binding affinity to purified HbS by Surface Plasmon Resonance (SPR); conditions: crosslinked biotinylated HbS, 1:1 binding model
# T2 construct: HbS was obtained from the blood of homozygous S/S patients; from tissue; host or cells: red blood cells of homozygous S/S patients
# Procedure: Binding Affinity, Kd (uM)
# The binding affinity for compounds to purified sickle cell hemoglobin (HbS) was determined using Surface Plasmon Resonance (SPR). Patient Sickle Cell blood was obtained from Boston Children's Hospital in accordance with Institutional Review Board protocols. HbS was obtained from the blood of homozygous S/S patients, and purified using the method described in: Antonini and Brunori, Hemoglobin and Myoglobin in their Reactions with Ligands. Amsterdam, London, North-Holland Publishing Company, 1971. Whole blood was separated into red blood cell and plasma components by centrifugation, after which the plasma was decanted and discarded. Packed red blood cells were washed with normal saline (0.9% NaCl) and then lysed by 2:1 dilution with cold deionized water. The hemolysate was centrifuged to remove cellular debris, and further purified with the addition of Drabkin's Buffer (2.8 M potassium phosphate), and centrifugation with Celite®. Organic phosphates (2,3-BPG) were removed via gel filtration with Sephadex® G-25. HbS and wild-type hemoglobin, hemoglobin A (HbA), were separated by […], using diethylaminoethyl (DEAE)-Sepharose® fast flow, and eluted using a pH gradient from pH 8.5-pH 7.5. Purity of the resulting HbS and HbA was determined by native gel electrophoresis and HbS fractions used further.
# To stabilize the tetrameric structure of hemoglobin, HbS was crosslinked between the beta subunits (Lys82-Lys82) using bis(3,5-dibromosalicyl) fumarate, as described in: Shibayama N. et al, J Am Chem Soc 2014, 136, 13, 5097-5105 and Shibayama N. et al, Biochemistry 1991, 39, 33, 8158-8165). Crosslinked HbS was subsequently biotynylated and captured on a custom made Streptavidin sensor to achieve protein density of 4000 to 5000 resonance units (RUs) on the surface. Compound binding to HbS using SPR was tested on Sierra Sensors MASS-1 instrument. The running buffer contained 100 mM Potassium Phosphate, pH 7.5, 0.005% Tween-20, 1 mM ethylenediaminetetraacetic acid (EDTA), 0.1 mg/mL bovine serum albumin with 1% DMSO. Compound samples were injected at a flow rate of 30 μL/min for 2 minutes association and at least 5 minutes of dissociation time. A 2- or 3-fold dilution series containing at least 4 concentrations were tested for each compound. The dose range was selected based on the activity of the compounds in biochemical assays, when available. Multiple blank injections of running buffer were run before and after each compound series to allow blank subtraction for compound data in the analysis software. Positive controls were run in each experiment to monitor and maintain the activity of HbS on the surface. A DMSO curve was run at the beginning of each data set to apply an excluded volume correction to the data during analysis. The data were processed and analyzed using Sierra Sensors and Scrubber 2.0 software. The binding affinities (dissociation constant Kd) were calculated by fitting the sensorgrams to a 1:1 binding model.
Structure (SMILES),IC50 (HbS),Kd [1]
"C[C@H](Oc1cc2cc(F)ccc2nc1N)c1cc2[nH]ncc2cc1-n1cccn1 (single isomer, unassigned) [Example 59]",4500 nM,47 nM
"C[C@H](Oc1cc2cc(C(N)=O)ccc2nc1N)c1cc2c(cnn2CCO)cc1-n1cccn1 (single isomer, unassigned) [Example 74]",4280 nM,59 nM
"CC(Oc1cc2cc(C(N)=O)c(F)cc2nc1N)c1cc2[nH]ncc2cc1-n1cccn1 (stereo in doubt) [Example 65, 2-amino-7-fluoro-3-{(1R)-1-[5-(1H-pyrazol-1-yl)-1H-indazol-6-yl]ethoxy}quinoline-6-carboxamide]",6170 nM,15 nM
"C[C@H](Oc1cc2cc(F)c(Cl)cc2nc1N)c1cc(C(N)=O)c(F)cc1-n1cccn1 [Example 2, 5-{(1S)-1-[(2-amino-7-chloro-6-fluoroquinolin-3-yl)oxy]ethyl}-2-fluoro-4-(1H-pyrazol-1-yl)benzamide]",6820 nM,21 nM
"C[C@H](Oc1cc2cc(F)ccc2nc1N)c1cc(-c2n[nH]c(=O)o2)ccc1-n1cccn1 [Example 5, 5-[3-{(1S)-1-[(2-amino-6-fluoroquinolin-3-yl)oxy]ethyl}-4-(1H-pyrazol-1-yl)phenyl]-1,3,4-oxadiazol-2(3H)-one]",4380 nM,14 nM
"C[C@H](Oc1cc2cc(F)ccc2nc1N)c1cc(S(N)(=O)=O)ccc1-n1cccn1 [Example 7, 3-{(1S)-1-[(2-amino-6-fluoroquinolin-3-yl)oxy]ethyl}-4-(1H-pyrazol-1-yl)benzenesulfonamide]",,126 nM
"COCCNC(=O)c1ccc(-n2cccn2)c([C@H](C)Oc2cc3cc(F)ccc3nc2N)c1 [Example 11, 3-{(1S)-1-[(2-amino-6-fluoroquinolin-3-yl)oxy]ethyl}-N-(2-methoxyethyl)-4-(1H-pyrazol-1-yl)benzamide]",4350 nM,61 nM
"C[C@H](Oc1cc2cc(F)ccc2nc1N)c1cc(-c2noc(=O)[nH]2)ccc1-n1cccn1 [Example 17, 3-[3-{(1S)-1-[(2-amino-6-fluoroquinolin-3-yl)oxy]ethyl}-4-(1H-pyrazol-1-yl)phenyl]-1,2,4-oxadiazol-5(4H)-one]",5050 nM,14 nM
"C[C@H](Oc1cc2cc(F)ccc2nc1N)c1cc(NS(C)(=O)=O)ccc1-n1cccn1 [Example 18, N-[3-{(1S)-1-[(2-amino-6-fluoroquinolin-3-yl)oxy]ethyl}-4-(1H-pyrazol-1-yl)phenyl]methanesulfonamide]",7160 nM,194 nM
"C[C@H](Oc1cc2cc(C(N)=O)ccc2nc1N)c1nc2[nH]ncc2cc1-n1cccn1 [Example 62, 2-amino-3-{(1S)-1-[5-(1H-pyrazol-1-yl)-1H-pyrazolo[3,4-b]pyridin-6-yl]ethoxy}quinoline-6-carboxamide]",,40 nM

# The remaining lines, values ahead:
IC50 (HbS),Kd [1],Structure (SMILES)
5060 nM,67 nM,"C[C@H](Oc1cc2cc(Br)ccc2nc1N)c1cc(C(N)=O)ccc1-n1cccn1 (single isomer, unassigned) [Example 3]"
7180 nM,271 nM,"C[C@H](Oc1cc2cc(F)ccc2nc1N)c1cc(CC(=O)O)ccc1-n1cccn1 (single isomer, unassigned) [Example 8]"
4500 nM,20 nM,"C[C@H](Oc1cc2cc(F)ccc2nc1N)c1cc(C(N)=O)c(F)cc1-n1cccn1 [Example 1, 5-{(1S)-1-[(2-amino-6-fluoroquinolin-3-yl)oxy]ethyl}-2-fluoro-4-(1H-pyrazol-1-yl)benzamide]"
4480 nM,35 nM,"COC(=O)c1ccc(-n2cccn2)c([C@H](C)Oc2cc3cc(F)ccc3nc2N)c1 [Example 6, methyl 3-{(1S)-1-[(2-amino-6-fluoroquinolin-3-yl)oxy]ethyl}-4-(1H-pyrazol-1-yl)benzoate]"
4720 nM,87 nM,"C[C@H](Oc1cc2cc(F)ccc2nc1N)c1cc(C(=O)O)c(F)cc1-n1cccn1 [Example 9, 5-{(1S)-1-[(2-amino-6-fluoroquinolin-3-yl)oxy]ethyl}-2-fluoro-4-(1H-pyrazol-1-yl)benzoic Acid]"
5860 nM,211 nM,"C[C@H](Oc1cc2cc(F)ccc2nc1N)c1cc(C(=O)NCC(=O)O)ccc1-n1cccn1 [Example 10, N-[3-{(1S)-1-[(2-amino-6-fluoroquinolin-3-yl)oxy]ethyl}-4-(1H-pyrazol-1-yl)benzoyl]glycine]"
4480 nM,38 nM,"C[C@H](Oc1cc2cc(F)ccc2nc1N)c1cc(C(=O)NCCO)ccc1-n1cccn1 [Example 12, 3-{(1S)-1-[(2-amino-6-fluoroquinolin-3-yl)oxy]ethyl}-N-(2-hydroxyethyl)-4-(1H-pyrazol-1-yl)benzamide]"
4330 nM,65 nM,"C[C@H](Oc1cc2cc(F)ccc2nc1N)c1cc(C(=O)NCCCO)ccc1-n1cccn1 [Example 13, 3-{(1S)-1-[(2-amino-6-fluoroquinolin-3-yl)oxy]ethyl}-N-(3-hydroxypropyl)-4-(1H-pyrazol-1-yl)benzamide]"
4300 nM,41 nM,"C[C@H](Oc1cc2cc(F)ccc2nc1N)c1cc(C(=O)N[C@H]2C[C@H](O)C2)ccc1-n1cccn1 [Example 14, 3-{(1S)-1-[(2-amino-6-fluoroquinolin-3-yl)oxy]ethyl}-N-(trans-3-hydroxycyclobutyl)-4-(1H-pyrazol-1-yl)benzamide]"
3890 nM,63 nM,"C[C@H](Oc1cc2cc(F)ccc2nc1N)c1cc(OCC(=O)O)ccc1-n1cccn1 [Example 15, [3-{(1S)-1-[(2-amino-6-fluoroquinolin-3-yl)oxy]ethyl}-4-(1H-pyrazol-1-yl)phenoxy]acetic Acid]"
3600 nM,188 nM,"C[C@H](Oc1cc2cc(F)ccc2nc1N)c1cc(CCC(=O)O)ccc1-n1cccn1 [Example 16, 3-[3-{(1S)-1-[(2-amino-6-fluoroquinolin-3-yl)oxy]ethyl}-4-(1H-pyrazol-1-yl)phenyl]propanoic Acid]"
4500 nM,64 nM,"C[C@H](Oc1cc2c(F)ccc(F)c2nc1N)c1cc(C(=O)O)ccc1-n1cccn1 [Example 19, 3-{(1S)-1-[(2-amino-5,8-difluoroquinolin-3-yl)oxy]ethyl}-4-(1H-pyrazol-1-yl)benzoic Acid]"
,36 nM,"C[C@H](Oc1cc2cc(F)cc(F)c2nc1N)c1cc(-c2noc(=O)[nH]2)ccc1-n1cccn1 [Example 80, (S)-3-(3-(1-((2-amino-6,8-difluoroquinolin-3-yl)oxy)ethyl)-4-(1H-pyrazol-1-yl)phenyl)-1,2,4-oxadiazol-5(4H)-one]"
